Values of other authors in patent US20100047343A1, “MULTIPARTICULATE FORMULATION HAVING TRAMADOL IN IMMEDIATE AND CONTROLLED RELEASE FORM” (The University of Kansas, priority 2006, published 2010).
Structures can show the parent of a compound that is named as a salt. Where two headings read alike, the source gives them in different places.

Key:
[1] = for accumulation: multiple dose treatment with tramadol HCl; for half-life: single oral dose of 100 mg
[2] = single oral dose of rapid release tramadol HCl (100 mg)
[3] = after oral administration of ULTRAM

Structure (SMILES) | accumulation [1] | half-life [1] | solubility in water (24° C.) | density of saturated solution (37° C.) | solubility in water (37° C.) | viscosity (sat'd. sol.) (37° C.) | bioavailability [1, 3] | time to peak serum concentrations [1, 3] | duration of the analgesic effect [2]
CN(C)C[C@H]1CCCC[C@]1(O)c1cccc(O)c1 [M1 derivative] | approximately 2 fold | 9 h |  |  |  |  |  |  | 
COc1cccc(C2(O)CCCCC2CN(C)C)c1 (centres unmarked) [tramadol HCl] |  |  | 790 mg/mL | 1.1079 | 840 mg/mL | 86.5 cp | 68% | ≤ 2 h | about 6 hours
COc1cccc(C2(O)CCCCC2CN(C)C)c1 (centres unmarked) [tramadol] | approximately 2 fold | 5.1 h |  |  |  |  |  |  | 
